These results are taken from patent US20230233500A1, “Gasdermin D (GSDMD) Succination for the Treatment of Inflammatory Disease” (University of Massachusetts, priority 2020, published 2023).

Structures can show the parent of a compound that is named as a salt.

Test [1] has as its system GSDMD-deficient THP1 cells. Put plainly: Kinetic cell death in GSDMD-/- THP1 cells. The test is classed as cell-based, human. The text has this: FIGS. 3A-J. Fumarate targets GSDMD and Gasdermin E (GSDME). Kinetic cell death of WT and Gsdmd-BMDMs (A) or WT/GSDMD^-/- THP1 cells (B) treated as indicated. LDH and IL-1β release from WT and Gsdmd^-/- BMDMs (C-D). Immunoblot of GSDMD and GSDME in native and reduced cell lysates from BMDMs (E). Immunoblot of GSDME in streptavidin pulldown from clicked lysates (F). Representative Mass spectra of succinated GSDME (G-H). Immunoblot analysis of GSDMD and GSDME from WT and […]^-/- BMDMs (I). A, B representative of three independent experiments. C, D, I pooled data from three independent experiments. E, F, J representative images from 3 independent experiments. ***, P<0.0001, […] (Two-way ANOVA). Error bars show means±SEM. Cells were plated, treated and incubated in phenol red free medium. Following treatment medium was collected and assessed for LDH release using the CytoTox96 non-radioactive cytotoxicity assay (Promega) as per manufacturer's instructions. Kinetic cell death assays were performed using SytoxOrange and the Biotek Cytation5.

A further test has as its target T1, GSDMD (Mus musculus, UniProt Q9D8T2).
T1 construct: We also immunoprecipitated GSDMD from fumarate treated BMDMs; endogenous in cells; host or cells: primary mouse BMDMs
T1 sequence (Q9D8T2 1-487): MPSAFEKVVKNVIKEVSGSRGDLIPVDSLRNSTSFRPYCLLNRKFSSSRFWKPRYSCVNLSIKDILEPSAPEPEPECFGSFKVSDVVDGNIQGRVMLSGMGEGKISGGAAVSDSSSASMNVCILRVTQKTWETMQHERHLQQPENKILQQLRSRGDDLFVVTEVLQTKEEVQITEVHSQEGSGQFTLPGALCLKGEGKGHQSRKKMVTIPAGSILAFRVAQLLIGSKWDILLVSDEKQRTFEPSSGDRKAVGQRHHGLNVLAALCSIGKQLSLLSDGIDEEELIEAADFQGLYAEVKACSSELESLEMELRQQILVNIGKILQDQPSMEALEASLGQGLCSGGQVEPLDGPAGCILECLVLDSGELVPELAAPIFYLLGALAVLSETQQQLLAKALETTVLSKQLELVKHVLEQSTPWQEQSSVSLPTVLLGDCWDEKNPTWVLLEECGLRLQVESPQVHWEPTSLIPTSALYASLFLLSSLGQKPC
Put plainly: MMF-Yne click chemistry labeling and streptavidin pulldown in BMDM lysates. The test is classed as binding. As for the experimental part:
FIG. 10. Illustrative schematic of click-chemistry based proteomics. Schematic representation of MMF-Yne proteomics. Primary WT BMDMs were treated with LPS for 2 hrs, MMF-Yne for 1 hour and nigericin (10 μM) for 1 hour. Lysates were subsequently Cu2+ clicked using a biotin-azide and streptavidin beads for pulldown of MMF-Yne interacting proteins. Streptavidin beads were digested using trypsin, reduced and alkylated and subjected to mass spec analysis.
Cells treated with or without the MMF-Alkyne probe were lysed and quantified by protein DC assay. Proteome samples (2 mg/ml) were incubated with TCEP, TBTA ligand, copper sulphate and Biotin Azide for 1 hour at room temperature with vortexing every 15 minutes. Precipitated proteins were centrifuged for 5 minutes at 4,600 g. Protein pellets were washed twice with ice cold methanol and sonicated in 1.2% SDS. Samples were heated at 95° C. for 5 minutes and diluted to a final volume of […] with PBS (0.2% SDS). An aliquot of the post-clicked lysate was retained and the remainder was incubated with streptavidin beads on a rotator overnight at 4 C. Samples were rotated at room temperature for 2 hours to resolubilize the SDS. Beads were washed five times with 0.2% SDS/PBS and placed on a rotator for 10 minutes in between washes. Beads were washed with ultra-pure water a further 3 times. […]

Test [2] has as its target T2, caspase 1-GSDMD interactions (Mus musculus, UniProt Q9D8T2).
T2 construct: Immunoblots of casplp20 and GSDMD in BMDMs (I); endogenous in cells; host or cells: primary mouse BMDMs
T2 sequence (Q9D8T2 1-487): T1 sequence (Q9D8T2 1-487)
As to the kind of experiment: Caspase 1-GSDMD interaction and caspase 1 processing in BMDMs. The test is classed as cell-based. The text has this: FIGS. 2A-J. Succination of GSDMD inhibits pyroptosis. Immunoblot of GSDMD in streptavidin pulldown from clicked lysates treated as indicated (A-B). Representative MS spectra of 2-monomethyl and 2-dimethylsuccination of GSDMD immunoprecipitated from fumarate treated BMDMs (C-D). Immunoblot of GSDMD in clicked lysates from transfected HEK293T. Cell death of HEK293T transfected as indicated (F-H). Immunoblots of casplp20 and GSDMD in BMDMs (I). Immunoblots of an in vitro binding assay of succinated and non-succinated GSDMD incubated with caspase 1 beads (J). A, B, F, J, […] representative images from three independent experiments. C, D, E, representative mass spec spectra from two independent experiments. H, I pooled data from three independent experiments. ***, P<0.001 (One-way anova). Error bars show means±SEM.
Primary BMDMs from WT or GsdmD^−/− mice were cultured in 12-well plates (1×10^6 cells per ml; 1 ml) or 10 cm dishes (2×10^6 cells per ml; 10 ml). HEK293T cells (2.5×10^5 cells per ml; 3 ml) were cultured in 6-well plates and transfected with FLAG-tagged GSDMD constructs where indicated. For cell lysate analysis cells were lysed directly in 1× Lamelli sample buffer. […] Samples were resolved by SDS-PAGE and stained using simply blue safe stain or transferred to nitrocellulose membranes and analyzed by immunoblot. […]

For `COC(=O)/C=C/C(=O)OC` [Fumarate, Dimethyl fumarate], the cell death result in test [1] is on record as “inhibited cell death”. Moreover, the “MMF-Yne labeling of GSDMD in presence of competitor” value on GSDMD (streptavidin pulldown from clicked lysates) is “blocked”. Moreover, the “MMF-Yne signal in pyroptotic lysates in presence of unlabeled competitor” value on GSDMD (streptavidin-IR dye immunoblot) is recorded as “reduced”. Besides, the “processing of caspase 1” value in test [2] (casp1 p20 immunoblot) is “not impaired”. For the same compound, the “caspase 1-GSDMD interactions” value in test [2] (immunoblots) is “completely blocked”.
